Entries after “also recorded” stand apart in the source; their conditions may differ.
Columns and labels:
HFF cells [1] = test: Immunofluorescence and telomere FISH (TIF) assay; type: cell-based, human
Protocol: (§1) Immunofluorescence and telomere FISH assay. Cells were fixed with 4% paraformaldehyde (PFA) for 15 minutes. Cells were then washed, permeabilized with 0.5% Triton-X-100 in PBS, blocked with 5% donkey serum and 0.3% Triton X-100 in TBS and incubated with primary antibodies against γH2A.X (1:500, rabbit), or cleaved caspase-3 (1:400, rabbit) (Cell Signaling); and/or TRF2 (1:200) (Mouse; NOVUS), as applicable, for overnight followed by TBST wash (×3) next day. Corresponding secondary antibodies were added (Alexa-Fluor 488- or 594-conjugated donkey anti-rabbit, or anti-mouse (1:500) (Jackson ImmunoResearch) for 1 hour and washed with TBS (×3) before mounting. For telomere-FISH, fixed and permeabilized cells were dehydrated with a graded ethanol concentration series, air-dried and covered with hybridization solution (70% formamide, 0.5% Blocking Reagent (Roche Diagnostics) diluted in 100 mM maleic acid and 150 mM sodium chloride, and 10 mM Tris (pH 7.5)) with 300 ng/mL PNA(CCCTAA)3-Cy3 (SEQ ID NO: 1) (Biosynthesis, USA), and denatured for 6 minutes at 84° C. followed by hybridization for at least two hours at room temperature. Cells were washed three times with 70% formamide and 10 mM Tris (pH 7.5) and three times with TBS. Finally, they were embedded with mounting media with DAPI (Vector Laboratories H1200).

HFF+hTERT cells [2] = test: Immunofluorescence and telomere FISH (TIF) assay; type: cell-based, human
Protocol: as §1

MB004 cells = test: Immunofluorescence and telomere FISH (TIF) assay; type: cell-based, human; details: 3 μM 2 days, then 3 days continuous or discontinuous treatment
Protocol: as §1

HFF cells [3] = test: Senescence-associated β-galactosidase assay; type: cell-based, human; details: 3 μM for 23 days
Excerpt: (§2) Senescence assay. Senescence-associated β-galactosidase was detected as previously described (2). Cells were observed under the microscope until the development of the blue color and the reaction was terminated. Images were captured; stained and unstained cells were counted from multiple fields to quantitate the percent senescent cells.

HFF+hTERT cells [4] = test: Senescence-associated β-galactosidase assay; type: cell-based, human; details: 3 μM for 23 days
Excerpt: as §2

MB004 tumors = tested on: MB004 tumors
Protocol: (§3) Mouse subcutaneous and orthotopic xenograft. Athymic Ncr-nu/nu female mice (6-7 weeks old) were subcutaneously injected with 10,000 MB004 cells. Mice were weighed and distributed in two groups (control and 6-thio-dG). After tumor-establishment (day 23-24 post-implantation) with an average volume of 100-200 mm3, mice were injected intraperitoneally (i.p) every 2 days with 6-thio-dG (2.5 mg/kg) or DMSO-PBS (vehicle) for 3-4 weeks until euthanization. Tumors were measured by slide calipers taking two longest tumor-diameters (length and width) perpendicular to each other and volumes were calculated by using the formula: (π/6)×d3, where d=mean diameter. For orthotopic xenograft, CCHMC-DIPG-1 luciferase-positive cells (10,000) were injected in the brain of NRG (NOD.Cg-Rag1tm1Mom Il2rgtm1Wjl/SzJ) mice. Briefly, mice were injected stereotactically with 2 μl medium containing 10,000 luciferase-positive cells. The coordinates for injection were 0.8-1 mm posterior to lambda suture and 3.5 mm deep, corresponding to the pons location in the brain. Tumors were visualized by luminescence using IVIS Spectrum CT in vivo imaging system (PerkinElmer). All animal procedures were approved by the Institutional Animal Care and Use Committee (IACUC) (protocol #IACUC2015-0066, CCHMC).
(§4) Immunohistochemistry. Formalin-fixed paraffin-embedded (FFPE) sections were deparaffinized in xylene followed by rehydration through a graded ethanol concentration series. Heat-induced antigen retrieval was performed by steaming slides for 20 minutes in 10 mM Citrate buffer (pH 6.0). […] Slides were washed with TBST (×3) and were treated with biotinylated anti-rabbit secondary antibody (1:500) and signal-amplified using ABC Kit (Vector Laboratories). Signal was visualized with DAB (Vector Laboratories) and counterstained with Harris Hematoxylin (Sigma). H & E staining was performed using hematoxylin-1 and eosin-Y (Thermo Scientific). Tissues were mounted with Permount (Fisher Scientific) and imaged by Nikon eclipse 80i microscope.
Tissue TIF assay. Tissue samples were pre-fixed with 4% PFA and were cryo-protected in 25% sucrose/PBS solution, then embedded in OCT freezing molds with Neg-50 (VWR) in acetone and dry ice followed by cryo-sectioning. Heat-induced antigen retrieval and Telomere-FISH was performed as described above. The samples were incubated in blocking solution (5% donkey serum, 0.3% Triton X-100 in TBS) for 30 minutes and treated with anti-53BP1 (rabbit 1:500; Novus Biologicals) for 1 hour at room temperature. After washing in TBST (×3), the samples were incubated with secondary antibody Alexa-Fluor 488-conjugated donkey anti-rabbit (1:400; Jackson ImmunoResearch), and washed in TBS (×3). The samples were embedded in mounting media with DAPI (Vector Laboratories H1200). Images were captured with 60× oil objective on Nikon Eclipse Ti confocal microscope.

[5] = tested on: CCHMC-DIPG-1 orthotopic tumors; test: Orthotopic patient-derived DIPG xenograft (CCHMC-DIPG-1 in pons); type: in vivo, mouse
Protocol: as §3, §4
Tissue TIF assay. […]

[6] = tested on: ATM and ATR signaling pathways in HFF cells; test: Western blot of ATR-T1989 and ATM-S1981 phosphorylation; type: cell-based, human; details: 3 μM, day 1 to 3
Protocol: (§5) Western blot. Western blot was performed as described previously (22). Antibodies used were against ATMS1981P (R & D Systems); ATM (SIGMA); ATR-T1989P (GeneTex); and ATR, CHK1-S345P, CHK1, CHK2-T68P, CHK2, Cleaved Caspase-3, and β-actin (Cell Signaling). Bands were visualized using ECL with Azurec500 imaging system (Azure Biosystems). Band intensities were quantified using ImageJ software (Ver. 1.49u, NIH, USA).

[7] = tested on: ATM and ATR signaling pathways in HFF+hTERT cells; test: as above; type: cell-based, human; details: 3 μM, day 1 to 3
Protocol: as §5

[8] = 2.5 mg/kg i.p. every 2 days for 3-4 weeks
[9] = 2.5 mg/kg i.p. every 2 days, vs untreated group

Nc1nc2c(ncn2[C@H]2C[C@H](O)[C@@H](CO)O2)c(=S)[nH]1 [6-thio-dG, 6-thio-2′-deoxyguanosine]
TIF formation (cells with TIFs) (HFF cells [1]; 3 μM, after 2 or 5 days treatment): less than 3% | TIFs after drug withdrawal (HFF cells [1]; 3 days after drug withdrawal): completely disappeared | cells TIF-positive (HFF+hTERT cells [2]; 3 μM 2 days, then 3 days after drug withdrawal): ~31% | cells TIF-positive (HFF+hTERT cells [2]; 3 μM, 5 days continuous treatment): ~34% | number of cells with TIFs (HFF+hTERT cells [2]; 3 μM, after two days): ~25% | number of TIFs per cell and number of cells with TIFs (HFF+hTERT cells [2]; 3 μM, from day 1 to day 3): markedly increased | TIF formation (MB004 cells): sustained TIF formation | cells SA-β-gal-positive (HFF cells [3]): 7% | cells with senescence phenotype (SA-β-gal-positive) (HFF+hTERT cells [4]): 30% | in-tumor cells with at least 1-3 TIFs (MB004 tumors; 2.5 mg/kg i.p. every 2 days): More than 21% | population of cells with 4-6 TIFs per cell (MB004 tumors; 2.5 mg/kg i.p. every 2 days): detected only in treated tumors | treated mice with fast tumor growth (MB004 tumors; [8]): Two out of six | treated mice with reduced or delayed tumor growth (MB004 tumors; [8]): Four out of six | in-tumor apoptosis (cleaved caspase-3 IHC) (MB004 tumors; 2.5 mg/kg i.p. every 2 days, vs control group): significant increase in apoptosis | apoptotic bodies (H & E) (MB004 tumors; [9]): increase in apoptotic bodies | number of mitotic figures (H & E) (MB004 tumors; [9]): significant decrease | probability of animal survival (MB004 tumors; upon reaching tumor volume of 1500 mm^3, vs vehicle group): significantly higher | intratumoral TIFs and genomic DNA damage ([5]; i.p., 7-8 days (4-5 doses in total), vs untreated tumors): increase in the number of cells with genomic DNA damage and TIFs | effect on normal mouse brain ([5]; intraperitoneal injection): no obvious effect on normal brain tissue; also recorded: did not observe any adverse effects | penetration to brain tumor site ([5]; intraperitoneal injection): reached the tumor in the pons; also recorded: crossed the blood-brain-barrier | ATR / ATM pathway activation [6]: activation of the ATR pathway | ATR-T1989 and ATM-S1981 phosphorylation [7]: Both ATM and ATR signaling pathways were engaged

Reference: patent US12594293B2, “Use of 6-thio-dG to treat therapy-resistant telomerasepositive pediatric brain tumors” (The Board of Regents of The University of Texas System, priority 2018, dated 2026)
